Counter-ions that a name gives are not always drawn.
How the values were obtained:
[1] = tested on: PPAR; settings: shown in US2006/0167012A1 and US2006/0205736A1; cited from earlier work
[2] = tested on: NASH mice; assay: Macrophage infiltration in liver, F4/80 staining; type: in vivo, C57B1/6J mice
Protocol: NASH-induced inflammation and lipid accumulation in the liver promotes infiltration of monocytes from peripheral circulation into the liver. Hepatic inflammatory status of NASH mice was assessed by histological assessment of the presence of macrophage specific markers including F4/80 in liver sections. An F4/80 antibody stain used is to quantitatively differentiate monocyte/macrophage cell population in the blood and tissue: infiltrating monocytes are F4/80 bright whereas liver macrophages (Kupffer cells) are F4/80 dull. There was a striking increase in the number of F4/80 bright macrophages in the liver of the NASH mice (data not shown) that is attenuated by treatment with Compound 2 (42 days, 5 mg/Kg/day) treated NASH (FIG. 4).
F4/80 stain was used to illustrate macrophage infiltration in liver tissue. The following protocol was followed: • 1. Check the number of sections per slide; if there is 1 section then use 2 slides from the same group per staining run (1 for ctrl IgG and 1 for primary antibody of interest). If there are 2 sections per slide then use 1 slide per group per run and separate the sections using a PAP pen. • 2. De-paraffin slides through 3×5-minutes Propar clearant, and re-hydrate with 5-minutes each in decreased concentrations of reagent alcohol to water (100%, 95%, 75%, water). • 3. Use Citrate buffer pH 6.0 for HIER (heat-induced epitope retrieval). […]

[3] = tested on: NASH mice; assay: Glucose tolerance testing (ipGTT) in NASH mice; type: in vivo, C57B1/6J mice
Protocol: Following 120-150 days on the HFD, mice in the NASH group were treated with Compound 2 (5 or 10 mg/Kg/day) or vehicle (10% Encapsin) for 42 days. Fasting and post prandial (PP) blood draws were taken at the beginning of the study (compound treatment) to identify and confirm the NASH group and during the study to evaluate various pharmacological responses. Since the NASH mice are severely hyperinsulinemic compared to NC mice, glucose tolerance testing (GTT, measures peripheral insulin resistance) was performed to evaluate the effect of Compound 2 on improvement of peripheral insulin sensitivity. […] Body weight and food intake was measured throughout the study.
Mice were then fasted overnight at 1700 hours for an experiment the following morning at 9:30 am. The animals were restrained in a towel to reduce handling stress and blood collection was from tail nick. Heat lamps were turned on 5 minutes prior to blood draws to warm animals slightly facilitating the flow of blood resulting in a decreased collection time. Blood glucose was measured using an Accu-check Compact Monitoring Kit (Roche Diagnostics, Indianapolis, Ind., Cat #3149137). Blood was also collected (˜100 μl) into EDTA microvettes (Sarstedt, Newton, N.C., Cat#16.444.100) for insulin ELISA analysis. After baseline blood collection, 2 g/kg Dextrose (Hospira, Lake Forest, Ill., NDC#0409-6648-02) was administered by intraperitoneal injection followed by glucose readings and blood draws (˜50 ul) at time points of 15, 30, 60, and 120 minutes post glucose challenge. Mice were kept in their home cages in between collection intervals.
Insulin fasting plasma samples were tested using Mercodia ultra sensitive mouse insulin ELISA: 2.5 μL EDTA plasma, ALPCO Diagnostics, Uppsala, Sweden, Cat #08-10-1150-99, LOQ (0.22-7.1 μg/L). Mouse JE/MCP-1 post prandial samples were collected at sacrifice. 12.5 μL EDTA plasma, R & D Systems, Minneapolis, Minn., Cat # MFE00, LOQ (15.6-1000 pg/mL).

[4] = oral administration, NASH mice, p<0.05 vs. vehicle

SMILES: C[C@@H]1CN(Cc2ccc(OC(F)(F)F)cc2)C[C@H](C)N1S(=O)(=O)c1cccc2c1C[C@@H](C(=O)O)C2 [Compound 2, (S)-4-[cis-2,6-Dimethyl-4-(4-trifluoromethoxy-benzyl)-piperazine-1-sulfonyl]-indan-2-carboxylic acid tosylate]
- PPAR modulator activity [1]: PPAR modulators
- number of F4/80 bright macrophages in the liver of the NASH mice ([2]; 42 days, 5 mg/Kg/day, FIG. 4): attenuated
- macrophage infiltration in the liver ([2]; oral administration, NASH mice, summary): attenuated macrophage infiltration
- insulin secretion during ipGTT ([3]; 21 days, 10 mg/Kg/day, compared to vehicle-treated animals): reduced insulin secretion
- peripheral insulin resistance ([3]; 21 days, 10 mg/Kg/day, ipGTT, compared to vehicle-treated animals): improved peripheral insulin resistance
- glucose disposal [3, 4]: improved glucose disposal
- insulin sensitivity [3, 4]: improved insulin sensitivity

Reference: patent US9463189B2 (BPV Holdings, LLC, priority 2007, dated 2016)
